# Columns and labels:
# [1] = DRUGMATRIX: Atrial Natriuretic Factor (ANF) radioligand binding (ligand: [125I] ANF (rat)); assay type: cell membranes, Cavia porcellus, Dunkin-Hartley, Adrenal gland, Membrane; settings: Not Active = under 50% inhibition at 10 µM
# [2] = biological target: Delta-type opioid receptor (Homo sapiens, UniProt P41143); assay type: cell membranes, HEK293, Membrane; settings: hek293; also: in other assays of this panel Not Active means under 50% inhibition at 10 µM
# [3] = biological target: Substance-P receptor (Homo sapiens, UniProt P25103); assay type: cell membranes, CHO, Membrane; settings: cho; also: in other assays of this panel Not Active means under 50% inhibition at 10 µM
# [4] = biological target: T1, B2 bradykinin receptor (Homo sapiens, UniProt P30411); assay type: cell membranes, Membrane; settings: chem-1; also: in other assays of this panel Not Active means under 50% inhibition at 10 µM
# T1 sequence (P30411 whole entry): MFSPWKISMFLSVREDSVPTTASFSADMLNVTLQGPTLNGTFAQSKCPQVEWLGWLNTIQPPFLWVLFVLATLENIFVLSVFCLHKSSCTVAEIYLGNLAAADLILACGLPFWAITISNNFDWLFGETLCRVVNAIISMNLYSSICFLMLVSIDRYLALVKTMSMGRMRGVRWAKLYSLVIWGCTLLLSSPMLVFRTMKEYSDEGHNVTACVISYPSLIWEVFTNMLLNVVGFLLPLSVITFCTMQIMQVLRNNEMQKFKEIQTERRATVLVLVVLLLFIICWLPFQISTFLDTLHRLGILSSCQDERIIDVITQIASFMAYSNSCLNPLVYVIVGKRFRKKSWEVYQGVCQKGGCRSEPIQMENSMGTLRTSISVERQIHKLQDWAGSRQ
# [5] = DRUGMATRIX: Glutamate, NMDA, Agonism radioligand binding (ligand: [3H] CGP-39653); assay type: cell membranes, Rattus norvegicus, Wistar, Cerebral cortex, Membrane; settings: Not Active = under 50% inhibition at 10 µM
# [6] = biological target: Carbonic anhydrase 2 (Homo sapiens, UniProt P00918); experiment: DRUGMATRIX: Carbonic Anhydrase II enzyme inhibition (substrate: 4-Nitrophenyl acetate (4-NPA)); assay type: tissue-based, Erythrocyte; settings: erythrocyte; Not Active = under 50% inhibition at 10 µM
# [7] = DRUGMATRIX: Purinergic P2X radioligand binding (ligand: [3H] alpha, beta-Methylene-ATP); assay type: cell membranes, Oryctolagus cuniculus, New Zealand albino, Urinary bladder, Membrane; settings: Not Active = under 50% inhibition at 10 µM
# [8] = biological target: 5-hydroxytryptamine receptor 2B (Homo sapiens, UniProt P41595); assay type: cell membranes, CHO-K1, Membrane; also: in other assays of this panel Not Active means under 50% inhibition at 10 µM
# [9] = DRUGMATRIX: Leukotriene, BLT (LTB4) radioligand binding (ligand: [3H]LTB4); assay type: cell membranes, Membrane; settings: u-937; Not Active = under 50% inhibition at 10 µM
# Sequence of Delta-type opioid receptor (P41143 whole entry): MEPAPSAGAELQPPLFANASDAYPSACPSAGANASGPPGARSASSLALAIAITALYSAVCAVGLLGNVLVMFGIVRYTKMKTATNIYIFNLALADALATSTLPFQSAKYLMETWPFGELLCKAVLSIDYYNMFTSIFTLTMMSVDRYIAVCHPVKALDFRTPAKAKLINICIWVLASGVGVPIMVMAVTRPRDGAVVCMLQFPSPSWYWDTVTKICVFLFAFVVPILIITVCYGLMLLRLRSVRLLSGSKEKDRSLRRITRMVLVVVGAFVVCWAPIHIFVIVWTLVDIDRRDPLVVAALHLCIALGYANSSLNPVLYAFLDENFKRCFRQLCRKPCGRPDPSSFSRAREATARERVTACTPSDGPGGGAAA
# Sequence of 5-hydroxytryptamine receptor 2B (P41595 whole entry): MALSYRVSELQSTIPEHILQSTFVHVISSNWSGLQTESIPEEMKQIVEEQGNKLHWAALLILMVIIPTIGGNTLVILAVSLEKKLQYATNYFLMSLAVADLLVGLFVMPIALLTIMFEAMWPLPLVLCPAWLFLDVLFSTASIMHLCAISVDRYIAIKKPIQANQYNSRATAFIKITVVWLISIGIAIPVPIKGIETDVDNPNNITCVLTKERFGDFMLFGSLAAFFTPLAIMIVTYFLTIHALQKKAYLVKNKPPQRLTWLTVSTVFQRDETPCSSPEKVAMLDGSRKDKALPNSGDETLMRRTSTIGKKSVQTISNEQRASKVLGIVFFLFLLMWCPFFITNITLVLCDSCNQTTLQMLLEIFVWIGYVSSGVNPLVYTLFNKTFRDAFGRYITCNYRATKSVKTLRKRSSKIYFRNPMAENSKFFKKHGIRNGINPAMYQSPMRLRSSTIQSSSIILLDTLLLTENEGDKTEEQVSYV
# Sequence of Substance-P receptor (P25103 whole entry): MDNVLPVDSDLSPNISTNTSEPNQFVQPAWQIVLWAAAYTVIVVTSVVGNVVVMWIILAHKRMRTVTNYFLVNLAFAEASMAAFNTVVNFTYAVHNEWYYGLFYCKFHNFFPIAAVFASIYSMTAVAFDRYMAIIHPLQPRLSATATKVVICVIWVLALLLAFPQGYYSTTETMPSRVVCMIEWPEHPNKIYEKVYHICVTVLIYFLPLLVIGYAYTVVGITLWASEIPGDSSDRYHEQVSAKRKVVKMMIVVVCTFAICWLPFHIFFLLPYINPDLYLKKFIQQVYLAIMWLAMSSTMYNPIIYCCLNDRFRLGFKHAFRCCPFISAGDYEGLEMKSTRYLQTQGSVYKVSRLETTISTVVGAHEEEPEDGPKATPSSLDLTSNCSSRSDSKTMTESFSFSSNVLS
Molecule,IC50 [1],Ki [1],IC50 [2],IC50 [3],IC50 [4],IC50 [5],Ki [5],IC50 [6],IC50 [7],Ki [7],IC50 ([8]; cho-k1),IC50 [9],Ki [9],IC50 ([8]; read-out: IC50),Ki ([8]; read-out: Ki),Ki [2],Ki [3],Ki [4],Ki [6],Ki ([8]; cho-k1)
CCCCN1CCCC[C@H]1C(=O)Nc1c(C)cccc1C [LEVOBUPIVACAINE],Not Active,Not Active,Not Active,Not Active,Not Active,Not Active,Not Active,Not Active,Not Active,Not Active,Not Active,Not Active,Not Active,–,–,–,–,–,–,–
CCCCc1nc(Cl)c(CO)n1Cc1ccc(-c2ccccc2-c2nnn[nH]2)cc1 [LOSARTAN],Not Active,Not Active,Not Active,Not Active,Not Active,Not Active,Not Active,Not Active,Not Active,Not Active,Not Active,Not Active,Not Active,–,–,–,–,–,–,–
Sc1ncnc2nc[nH]c12 [MERCAPTOPURINE ANHYDROUS],Not Active,Not Active,Not Active,Not Active,Not Active,Not Active,Not Active,Not Active,Not Active,Not Active,Not Active,Not Active,Not Active,–,–,–,–,–,–,–
C[C@](N)(Cc1ccc(O)c(O)c1)C(=O)O [METHYLDOPA],Not Active,Not Active,Not Active,Not Active,Not Active,Not Active,Not Active,Not Active,Not Active,Not Active,Not Active,Not Active,Not Active,–,–,–,–,–,–,–
C[C@]12CCC(=O)C=C1CC[C@@H]1[C@@H]2CC[C@@]2(C)[C@H]1CC[C@]2(C)O [METHYLTESTOSTERONE],Not Active,Not Active,Not Active,Not Active,Not Active,Not Active,Not Active,Not Active,Not Active,Not Active,Not Active,Not Active,Not Active,–,–,–,–,–,–,–
Cc1ccccc1N1C(=O)c2cc(S(N)(=O)=O)c(Cl)cc2NC1C (stereo not given) [METOLAZONE],Not Active,Not Active,Not Active,Not Active,Not Active,Not Active,Not Active,Not Active,Not Active,Not Active,Not Active,Not Active,Not Active,–,–,–,–,–,–,–
COCCc1ccc(OCC(O)CNC(C)C)cc1 (stereo not given) [METOPROLOL],Not Active,Not Active,Not Active,Not Active,Not Active,Not Active,Not Active,Not Active,Not Active,Not Active,Not Active,Not Active,Not Active,–,–,–,–,–,–,–
CCn1cc(C(=O)O)c(=O)c2cc(F)c(N3CCNCC3)cc21 [NORFLOXACIN],Not Active,Not Active,Not Active,Not Active,Not Active,Not Active,Not Active,Not Active,Not Active,Not Active,Not Active,Not Active,Not Active,–,–,–,–,–,–,–
NC1=NC(=O)C(c2ccccc2)O1 (stereo not given) [PEMOLINE],Not Active,Not Active,Not Active,Not Active,Not Active,Not Active,Not Active,Not Active,Not Active,Not Active,Not Active,Not Active,Not Active,–,–,–,–,–,–,–
Nc1nc2c(ncn2CCC(CO)CO)c(=O)[nH]1 [PENCICLOVIR],Not Active,Not Active,Not Active,Not Active,Not Active,Not Active,Not Active,Not Active,Not Active,Not Active,Not Active,Not Active,Not Active,–,–,–,–,–,–,–
C=C(C)C1(O)OC(=O)C=C1OC (stereo not given) [PENICILLIC ACID],Not Active,Not Active,Not Active,Not Active,Not Active,Not Active,Not Active,Not Active,Not Active,Not Active,Not Active,Not Active,Not Active,–,–,–,–,–,–,–
CC1(C)S[C@@H]2[C@H](NC(=O)Cc3ccccc3)C(=O)N2[C@H]1C(=O)O [PENICILLIN G],Not Active,Not Active,Not Active,Not Active,Not Active,Not Active,Not Active,Not Active,Not Active,Not Active,Not Active,Not Active,Not Active,–,–,–,–,–,–,–
CCCN1C[C@H](CSC)C[C@@H]2c3cccc4[nH]cc(c34)C[C@H]21 [PERGOLIDE],Not Active,Not Active,Not Active,Not Active,Not Active,Not Active,Not Active,Not Active,Not Active,Not Active,–,Not Active,Not Active,0.076 µM,0.049 µM,–,–,–,–,–
C1CCC(C(CC2CCCCN2)C2CCCCC2)CC1 (stereo not given) [PERHEXILINE],Not Active,Not Active,Not Active,Not Active,Not Active,Not Active,Not Active,Not Active,Not Active,Not Active,Not Active,Not Active,Not Active,–,–,–,–,–,–,–
CCOc1ccc(NC(C)=O)cc1 [PHENACETIN],Not Active,Not Active,Not Active,Not Active,Not Active,Not Active,Not Active,Not Active,Not Active,Not Active,Not Active,Not Active,Not Active,–,–,–,–,–,–,–
CNNCc1ccc(C(=O)NC(C)C)cc1 [PROCARBAZINE],Not Active,Not Active,Not Active,Not Active,Not Active,Not Active,Not Active,Not Active,Not Active,Not Active,Not Active,Not Active,Not Active,–,–,–,–,–,–,–
CN(C)CCCN1c2ccccc2Sc2ccccc21 [PROMAZINE],Not Active,Not Active,Not Active,Not Active,Not Active,Not Active,Not Active,Not Active,Not Active,Not Active,–,Not Active,Not Active,0.347 µM,0.221 µM,–,–,–,–,–
CC(O)CO (stereo not given) [PROPYLENE GLYCOL],Not Active,Not Active,Not Active,Not Active,Not Active,Not Active,Not Active,Not Active,Not Active,Not Active,Not Active,Not Active,Not Active,–,–,–,–,–,–,–
CADMIUM ACETATE,Not Active,Not Active,Not Active,Not Active,Not Active,Not Active,Not Active,Not Active,Not Active,Not Active,Not Active,Not Active,Not Active,–,–,Not Active,Not Active,Not Active,Not Active,Not Active
LEAD (II) ACETATE,Not Active,Not Active,Not Active,Not Active,Not Active,Not Active,Not Active,Not Active,Not Active,Not Active,Not Active,Not Active,Not Active,–,–,Not Active,Not Active,Not Active,Not Active,Not Active
LIPOPOLYSACCHARIDE E. COLI O55:B5,Not Active,Not Active,Not Active,Not Active,Not Active,Not Active,Not Active,Not Active,Not Active,Not Active,Not Active,Not Active,Not Active,–,–,Not Active,Not Active,Not Active,Not Active,Not Active

# Source: ChEMBL document CHEMBL1909046, “DrugMatrix in vitro pharmacology data”
